“And” between values parts separate entries of the source, which are not always exact repeats. Equal entries are not always repeated. Where two headings read alike, the source gives them in different places.
Test system: NCI-60 standardized human tumor cell line panel
Assay: cells
Format: cell-based

In the case of `COc1cc2cc(C(=O)N3C[C@@H](CCl)c4c3cc(OC(=O)N(CCC(=O)N3CCN(C)CC3)C3CCCCC3)c3ccccc43)[nH]c2c(OC)c1OC` [P-CC60-CBI-TMI], the “NCI-60 screening: Log(GI50)” value (SN12C (RE) cell line, log10 of GI50 in M) was -5.92, the GI50 (SN12C, read-out: GI50) was 1.2 µM and the GI50 (SNB-19, read-out: GI50) was 2.2 µM. The GI50 (SR, read-out: GI50) was 0.28 µM, the GI50 (SW-620, read-out: GI50) was 1.9 µM and the GI50 (T-47D, read-out: GI50) was 1.9 µM. For the same molecule, the “NCI-60 screening: Log(GI50)” value (TK-10 (RE) cell line, log10 of GI50 in M) was -5.55, the GI50 (TK-10 (RE) cell line, read-out: NCI-60 screening: Raw GI50) was 2.8 µM and the GI50 (TK-10, read-out: GI50) was 2.8 µM. The GI50 (U251, read-out: GI50) was 1.5 µM, the GI50 (UACC-62, read-out: GI50) was 1.5 µM and the GI50 (UACC-257, read-out: GI50) was 2 µM. The “NCI-60 screening: Log(GI50)” value (cell line A549/ATCC (LC:A549/ATCC), TMI sheet) was -5.7, the GI50 (cell line A549/ATCC (LC:A549/ATCC), TMI sheet, read-out: NCI-60 screening: Raw GI50) was 2 µM and the “NCI-60 screening: Log(GI50)” value (cell line BT-549 (BR:BT-549), TMI sheet) was -5.8. For the same molecule, the GI50 (cell line BT-549 (BR:BT-549), TMI sheet, read-out: NCI-60 screening: Raw GI50) was 1.6 µM, the “NCI-60 screening: Log(GI50)” value (cell line CCRF-CEM (LE:CCRF-CEM), TMI sheet) was -6 and the “NCI-60 screening: Log(GI50)” value (cell line COLO 205 (CO:COLO 205), TMI sheet) was -5.86. For the same molecule, the GI50 (cell line COLO 205 (CO:COLO 205), TMI sheet, read-out: NCI-60 screening: Raw GI50) was 1.4 µM, the “NCI-60 screening: Log(GI50)” value (cell line EKVX (LC:EKVX), TMI sheet) was -5.71 and the GI50 (cell line EKVX (LC:EKVX), TMI sheet, read-out: NCI-60 screening: Raw GI50) was 1.9 µM. For the same molecule, the “NCI-60 screening: Log(GI50)” value (cell line HCC-2998 (CO:HCC-2998), TMI sheet) was -5.82, the GI50 (cell line HCC-2998 (CO:HCC-2998), TMI sheet, read-out: NCI-60 screening: Raw GI50) was 1.5 µM and the “NCI-60 screening: Log(GI50)” value (cell line HCT-15 (CO:HCT-15), TMI sheet) was -5.76. The GI50 (cell line HCT-15 (CO:HCT-15), TMI sheet, read-out: NCI-60 screening: Raw GI50) was 1.7 µM, the “NCI-60 screening: Log(GI50)” value (cell line HCT-116 (CO:HCT-116), TMI sheet) was -5.82 and the GI50 (cell line HCT-116 (CO:HCT-116), TMI sheet, read-out: NCI-60 screening: Raw GI50) was 1.5 µM. For the same molecule, the “NCI-60 screening: Log(GI50)” value (cell line HL-60(TB) (LE:HL-60(TB)), TMI sheet) was -6.12, the “NCI-60 screening: Log(GI50)” value (cell line HOP-62 (LC:HOP-62), TMI sheet) was -6.23 and the GI50 (cell line HOP-62 (LC:HOP-62), TMI sheet, read-out: NCI-60 screening: Raw GI50) was 0.59 µM. For the same molecule, the “NCI-60 screening: Log(GI50)” value (cell line HOP-92 (LC:HOP-92), TMI sheet) was -5.6, the “NCI-60 screening: Log(GI50)” value (cell line HT29 (CO:HT29), TMI sheet) was -5.82 and the GI50 (cell line HT29 (CO:HT29), TMI sheet, read-out: NCI-60 screening: Raw GI50) was 1.5 µM. For the same molecule, the “NCI-60 screening: Log(GI50)” value (cell line K-562 (LE:K-562), TMI sheet) was -6.17, the “NCI-60 screening: Log(GI50)” value (cell line KM12 (CO:KM12), TMI sheet) was -5.68 and the GI50 (cell line KM12 (CO:KM12), TMI sheet, read-out: NCI-60 screening: Raw GI50) was 2.1 µM. For the same molecule, the “NCI-60 screening: Log(GI50)” value (cell line LOX IMVI (ME:LOX IMVI), TMI sheet) was -5.96, the GI50 (cell line LOX IMVI (ME:LOX IMVI), TMI sheet, read-out: NCI-60 screening: Raw GI50) was 1.1 µM and the “NCI-60 screening: Log(GI50)” value (cell line M14 (ME:M14), TMI sheet) was -5.82. The GI50 (cell line M14 (ME:M14), TMI sheet, read-out: NCI-60 screening: Raw GI50) was 1.5 µM, the “NCI-60 screening: Log(GI50)” value (cell line MALME-3M (ME:MALME-3M), TMI sheet) was -5.8 and the GI50 (cell line MALME-3M (ME:MALME-3M), TMI sheet, read-out: NCI-60 screening: Raw GI50) was 1.6 µM. For the same molecule, the “NCI-60 screening: Log(GI50)” value (cell line MCF7 (BR:MCF7), TMI sheet) was -6.5, the “NCI-60 screening: Log(GI50)” value (cell line MDA-MB-435 (ME:MDA-MB-435), TMI sheet) was -5.75 and the “NCI-60 screening: Log(GI50)” value (cell line MOLT-4 (LE:MOLT-4), TMI sheet) was -6.23. The GI50 (cell line MOLT-4 (LE:MOLT-4), TMI sheet, read-out: NCI-60 screening: Raw GI50) was 0.59 µM, the “NCI-60 screening: Log(GI50)” value (cell line NCI-H23 (LC:NCI-H23), TMI sheet) was -6.33 and the “NCI-60 screening: Log(GI50)” value (cell line NCI-H226 (LC:NCI-H226), TMI sheet) was -5.84. The GI50 (cell line NCI-H226 (LC:NCI-H226), TMI sheet, read-out: NCI-60 screening: Raw GI50) was 1.4 µM, the “NCI-60 screening: Log(GI50)” value (cell line RPMI-8226 (LE:RPMI-8226), TMI sheet) was -5.83 and the GI50 (cell line RPMI-8226 (LE:RPMI-8226), TMI sheet, read-out: NCI-60 screening: Raw GI50) was 1.5 µM. The “NCI-60 screening: Log(GI50)” value (cell line SF-268 (CNS:SF-268), TMI sheet) was -5.81, the GI50 (cell line SF-268 (CNS:SF-268), TMI sheet, read-out: NCI-60 screening: Raw GI50) was 1.5 µM and the “NCI-60 screening: Log(GI50)” value (cell line SF-295 (CNS:SF-295), TMI sheet) was -5.81. For the same molecule, the GI50 (cell line SF-295 (CNS:SF-295), TMI sheet, read-out: NCI-60 screening: Raw GI50) was 1.5 µM, the “NCI-60 screening: Log(GI50)” value (cell line SF-539 (CNS:SF-539), TMI sheet) was -5.88 and the “NCI-60 screening: Log(GI50)” value (cell line SK-MEL-5 (ME:SK-MEL-5), TMI sheet) was -5.79. For the same molecule, the GI50 (cell line SK-MEL-5 (ME:SK-MEL-5), TMI sheet, read-out: NCI-60 screening: Raw GI50) was 1.6 µM, the “NCI-60 screening: Log(GI50)” value (cell line SK-MEL-28 (ME:SK-MEL-28), TMI sheet) was -5.45 and the “NCI-60 screening: Log(GI50)” value (cell line SNB-19 (CNS:SNB-19), TMI sheet) was -5.65. For the same molecule, the GI50 (cell line SNB-19 (CNS:SNB-19), TMI sheet, read-out: NCI-60 screening: Raw GI50) was 2.2 µM, the “NCI-60 screening: Log(GI50)” value (cell line SR (LE:SR), TMI sheet) was -6.56 and the “NCI-60 screening: Log(GI50)” value (cell line SW-620 (CO:SW-620), TMI sheet) was -5.72. The GI50 (cell line SW-620 (CO:SW-620), TMI sheet, read-out: NCI-60 screening: Raw GI50) was 1.9 µM, the “NCI-60 screening: Log(GI50)” value (cell line T-47D (BR:T-47D), TMI sheet) was -5.72 and the GI50 (cell line T-47D (BR:T-47D), TMI sheet, read-out: NCI-60 screening: Raw GI50) was 1.9 µM. The “NCI-60 screening: Log(GI50)” value (cell line U251 (CNS:U251), TMI sheet) was -5.82, the GI50 (cell line U251 (CNS:U251), TMI sheet, read-out: NCI-60 screening: Raw GI50) was 1.5 µM and the “NCI-60 screening: Log(GI50)” value (cell line UACC-62 (ME:UACC-62), TMI sheet) was -5.82. The GI50 (cell line UACC-62 (ME:UACC-62), TMI sheet, read-out: NCI-60 screening: Raw GI50) was 1.5 µM, the “NCI-60 screening: Log(GI50)” value (cell line UACC-257 (ME:UACC-257), TMI sheet) was -5.7 and the GI50 (cell line UACC-257 (ME:UACC-257), TMI sheet, read-out: NCI-60 screening: Raw GI50) was 2 µM. For the same molecule, the GI50 (read-out: GI50) was 1.5 µM and 2.4 µM and the GI50 (read-out: NCI-60 screening: Raw GI50) was 1.5 µM.

— publication PMC10141580, “Cyclic Dichalcogenides Extend the Reach of Bioreductive Prodrugs to Harness Thiol/Disulfide Oxidoreductases: Applications to seco-Duocarmycins Targeting the Thioredoxin System” (ACS Central Science, 2023)
